Values quoted from earlier work as cited in patent US6858233B2, “Simmondsin processing methods and products” (International Flora Technologies, Ltd., priority 2001, dated 2005).

Key:
[1] = system: rats; settings: relative to simmondsin, Cokelaere et al. 1996
[2] = system: animals; settings: reported in the literature

For simmondsin ferulate, the “efficacy compared to simmondsin (food intake reduction)” value [1] is given as “about 67%” and the “ability to cause food intake reduction” value [2] is given as “significant food intake reduction”.
In the case of CO[C@H]1[C@@H](OC)C[C@@H](O[C@@H]2O[C@H](CO)[C@@H](O)[C@H](O)[C@H]2O)/C(=C\C#N)[C@@H]1O [simmondsin], the “ability to cause food intake reduction” value [2] is given as “significant food intake reduction”.
For N#C/C=C1\[C@H](O[C@@H]2O[C@H](CO)[C@@H](O)[C@H](O)[C@H]2O)C[C@H](O)[C@H](O)[C@H]1O [didemethyl simmondsin], the “ability to cause food intake reduction” value [2] is given as “thought not to have such efficacy”.
